Target: NLRP3 inflammasome (Homo sapiens, UniProt Q96P20)
Test: THP-1 ASC-GFP speck assay
Format: cell-based
Set-up: host or cells: THP-1 ASC-GFP cells, PMA-differentiated, LPS-primed, nigericin-stimulated
Conditions: THP-1 ASC-GFP cells, PMA differentiated, LPS primed, 10 μM nigericin; read-out: THP1 ASC Speck IC50
Method: THP-1 ASC-GFP cell line was purchased from Invivogen, San Diego, for inflammasome activation assay. THP-1 ASC-GFP cells stably express a 37.6 kDa ASC::GFP fusion protein that enables monitoring of spec formation by microscopy after activation of NLRP3 dependent inflammasome pathway. Cells were maintained at a density of 600,000 cells/mL in growth media consisting of RPMI 1640, 2 mM L-glutamine, 25 mM HEPES and 10% heat inactivated fetal bovine serum at 37° C. and 5% CO2. Cells were passaged every 3-4 days and used for assays for up to 20 passages.
THP-1 ASC-GFP cells were collected by centrifuging cells at 800 RPM for 5 minutes. Cell culture supernatant was removed and cells were re-suspended in fresh media at density of 1×10^6 cells/mL in assay media consisting of RPMI 1640, 2 mM L-glutamine, 25 mM HEPES and 10% heat inactivated fetal bovine serum. Phorbol 12-myristate 13-acetate (PMA) (Invivogen, tlrl-pma) was added to the cell suspension at a final concentration of 500 ng/ml and mixed thoroughly. 40,000 cells were added per well of a 384 well plate and differentiated into macrophages overnight at 37° C. and 5% CO2. Cells were primed with 1 μg/mL of lipopolysaccharide (Invivogen Ultrapure lipopolysaccharide from E. coli, tlrl-3pelps) in assay media for 3 hours at 37° C. and 5% CO2. After priming, media was removed and THP-1 ASC-GFP cells were preincubated with serially diluted test compounds with starting concentration of 40 μM followed by 2-fold dilution for a 20-point curve or vehicle (DMSO) for 30 min in assay media at 37° C. and 5% CO2. Cells were then stimulated with 10 μM nigericin (Invivogen, tlrl-nig-5) for 90 min at 37° C. and 5% CO2 to activate NLRP3 dependent inflammasome pathway and spec formation. After stimulation, cells were fixed with 4.8% paraformaldehyde (Electron Microscopy Sciences #15710-S) and incubated at room temperature for 15 min. Cells were then washed 3-times with 100 μL of phosphate buffered saline and permeabilized in the presence of premeablization/block buffer for 20 min at room temperature. Cells were then washed 3-times with 100 μL phosphate buffered saline and incubated for 1 hr at room temperature in the presence of hoechst. After staining with Hoechst, cells were washed 3-times with 100 μL phosphate buffered saline and imaged for ASC spec formation.
THP-1 ASC-GFP cells were imaged in 488 and Hoechst channels. Hoechst channel was used for cell count and 488 channel was used to identify number of GFP ASC specks in imaged fields. Percentage of cells with a spec was calculated by dividing the number of GFP positive spots by total number of cells.

Chain of NLRP3 inflammasome (Q96P20 whole entry): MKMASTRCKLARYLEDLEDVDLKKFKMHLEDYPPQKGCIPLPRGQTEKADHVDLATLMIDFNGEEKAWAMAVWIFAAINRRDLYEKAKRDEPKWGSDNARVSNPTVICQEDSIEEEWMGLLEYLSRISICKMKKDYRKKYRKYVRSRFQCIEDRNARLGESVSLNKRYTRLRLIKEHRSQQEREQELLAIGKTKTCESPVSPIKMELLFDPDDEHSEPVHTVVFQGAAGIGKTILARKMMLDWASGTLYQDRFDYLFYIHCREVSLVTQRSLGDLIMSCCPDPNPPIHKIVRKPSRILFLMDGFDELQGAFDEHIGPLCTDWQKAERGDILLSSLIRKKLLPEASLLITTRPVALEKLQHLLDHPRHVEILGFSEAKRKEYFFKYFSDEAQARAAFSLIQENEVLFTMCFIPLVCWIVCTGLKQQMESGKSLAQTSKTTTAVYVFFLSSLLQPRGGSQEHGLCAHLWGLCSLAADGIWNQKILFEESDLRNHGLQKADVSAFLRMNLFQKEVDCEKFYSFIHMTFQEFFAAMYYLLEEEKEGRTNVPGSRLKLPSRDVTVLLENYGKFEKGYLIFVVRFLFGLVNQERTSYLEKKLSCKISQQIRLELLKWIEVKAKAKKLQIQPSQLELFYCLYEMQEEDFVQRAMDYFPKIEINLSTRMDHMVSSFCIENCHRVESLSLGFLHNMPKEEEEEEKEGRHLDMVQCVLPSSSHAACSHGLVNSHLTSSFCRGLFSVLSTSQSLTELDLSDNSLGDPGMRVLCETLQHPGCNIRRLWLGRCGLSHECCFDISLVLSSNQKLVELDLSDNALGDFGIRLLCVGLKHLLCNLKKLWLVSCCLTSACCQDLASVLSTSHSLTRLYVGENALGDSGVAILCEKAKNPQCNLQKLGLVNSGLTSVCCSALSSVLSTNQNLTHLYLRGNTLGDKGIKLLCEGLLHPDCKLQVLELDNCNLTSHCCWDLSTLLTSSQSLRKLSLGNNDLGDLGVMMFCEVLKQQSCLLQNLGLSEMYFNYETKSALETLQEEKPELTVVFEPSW

Compound	IC50
NS(=O)(=NC(=O)Nc1c2c(cc3c1CCC3)CCC2)c1cnn2c1COCCC2 (single isomer, unassigned) [Example 61]	> 20 µM
CNCCOc1cc(C(C)C)c(NC(=O)N=S(N)(=O)c2cnn3c2OCCC3)c(C(C)C)n1 (single isomer, unassigned) [Example 70]	> 20 µM
CNCCOc1cc(C(C)C)c(NC(=O)N=S(N)(=O)c2cnn3c2OCCC3)c(C(C)C)n1 (single isomer, unassigned) [Example 71]	> 20 µM
NS(=O)(=NC(=O)Nc1c2c(cc3c1CCC3)CCC2)c1cnn2c1NCCC2 (single isomer, unassigned) [Example 72]	2.5 µM
NS(=O)(=NC(=O)Nc1c2c(cc3c1CCC3)CCC2)c1cnn2c1NCCC2 (single isomer, unassigned) [Example 73]	> 20 µM
CC1CCn2ncc(S(N)(=O)=NC(=O)Nc3c4c(cc5c3CCC5)CCC4)c2OC1 (single isomer, unassigned) [Example 74]	> 20 µM
CC1CCn2ncc(S(N)(=O)=NC(=O)Nc3c4c(cc5c3CCC5)CCC4)c2OC1 (single isomer, unassigned) [Example 75]	15 µM
COc1cc(C(C)C)c(NC(=O)N=S(N)(=O)c2cnn3c2OCC(C)(C)C3)c(C(C)C)n1 (single isomer, unassigned) [Example 76]	2.6 µM
COc1cc(C(C)C)c(NC(=O)N=S(N)(=O)c2cnn3c2OCC(C)(C)C3)c(C(C)C)n1 (single isomer, unassigned) [Example 77]	> 20 µM
CC1(C)COc2c(S(N)(=O)=NC(=O)Nc3c4c(cc5c3CCC5)CCC4)cnn2C1 (single isomer, unassigned) [Example 80]	4.5 µM
CNCc1cc(C(C)C)c(NC(=O)N=S(N)(=O)c2cnn3c2OCCC3)c(C(C)C)n1 (single isomer, unassigned) [Example 84]	> 20 µM
CNCc1cc(C(C)C)c(NC(=O)N=S(N)(=O)c2cnn3c2OCCC3)c(C(C)C)n1 (single isomer, unassigned) [Example 85]	> 20 µM
COC1CCn2ncc(S(N)(=O)=NC(=O)Nc3c4c(cc5c3CCC5)CCC4)c2OC1 (single isomer, unassigned) [Example 86]	> 20 µM
COC1CCn2ncc(S(N)(=O)=NC(=O)Nc3c4c(cc5c3CCC5)CCC4)c2OC1 (single isomer, unassigned) [Example 87]	2.9 µM
COC1CCOc2c(S(N)(=O)=NC(=O)Nc3c4c(cc5c3CCC5)CCC4)cnn2C1 (single isomer, unassigned) [Example 88]	7.7 µM
COC1CCOc2c(S(N)(=O)=NC(=O)Nc3c4c(cc5c3CCC5)CCC4)cnn2C1 (single isomer, unassigned) [Example 89]	> 20 µM
COC1CCn2ncc(S(N)(=O)=NC(=O)Nc3c4c(cc5c3CCC5)CCC4)c2OC1 (single isomer, unassigned) [Example 92]	8.2 µM
CC(C)c1nn(CC(F)F)c(C(C)C)c1NC(=O)N=S(N)(=O)c1cnn2c1OCCC2 (single isomer, unassigned) [Example 96]	> 20 µM
CCn1nc(C(C)C)c(NC(=O)N=S(N)(=O)c2cnn3c2OCCC3)c1C(C)C (single isomer, unassigned) [Example 98]	> 20 µM
NS(=O)(=NC(=O)Nc1c2c(cc3c1CCC3)CCC2)c1cnn2c1SCCC2 (single isomer, unassigned) [Example 100]	2.7 µM
NS(=O)(=NC(=O)Nc1c2c(cc3c1CCC3)CCC2)c1cnn2c1SCCC2 (single isomer, unassigned) [Example 101]	> 20 µM
COc1cc(C(C)C)c(NC(=O)N=S(N)(=O)c2cnn3c2OCCC3)c(C(C)C)n1 (single isomer, unassigned) [Example 102]	5.1 µM
COc1cc(C(C)C)c(NC(=O)N=S(N)(=O)c2cnn3c2OCCC3)c(C(C)C)n1 (single isomer, unassigned) [Example 103]	> 20 µM
CNC1CCOc2c(S(N)(=O)=NC(=O)Nc3c4c(cc5c3CCC5)CCC4)cnn2C1 (single isomer, unassigned) [Example 105]	9.9 µM
CN1CCCn2ncc(S(N)(=O)=NC(=O)Nc3c4c(cc5c3CCC5)CCC4)c21 (single isomer, unassigned) [Example 107]	9 µM
CN1CCCn2ncc(S(N)(=O)=NC(=O)Nc3c4c(cc5c3CCC5)CCC4)c21 (single isomer, unassigned) [Example 108]	> 20 µM
CNC1CCOc2c(S(N)(=O)=NC(=O)Nc3c4c(cc5c3CCC5)CCC4)cnn2C1 (single isomer, unassigned) [Example 109]	5.7 µM
CC(C)c1nn(CC2CC2)c(C(C)C)c1NC(=O)N=S(N)(=O)c1cnn2c1OCCC2 (single isomer, unassigned) [Example 113]	> 20 µM
CC(C)c1nn(CC2CC2)c(C(C)C)c1NC(=O)N=S(N)(=O)c1cnn2c1OCCC2 (single isomer, unassigned) [Example 114]	4.4 µM
COC1COc2c(S(=O)(=NC(=O)Nc3c4c(cc5c3CCC5)CCC4)NC(C)=O)cnn2C1 (single isomer, unassigned) [Example 115]	2.5 µM

Now those with a lower IC50, led by results:

IC50	Compound
1.7 µM	CCn1nc(C(C)C)c(NC(=O)N=S(N)(=O)c2cnn3c2OCCC3)c1C(C)C (single isomer, unassigned) [Example 99]
1.3 µM	CC(C)c1nn(CC(F)F)c(C(C)C)c1NC(=O)N=S(N)(=O)c1cnn2c1OCCC2 (single isomer, unassigned) [Example 97]
1 µM	CC1CCn2ncc(S(N)(=O)=NC(=O)Nc3c4c(cc5c3CCC5)CCC4)c2OC1 (single isomer, unassigned) [Example 79]
0.92 µM	NS(=O)(=NC(=O)Nc1c2c(cc3c1CCC3)CCC2)c1cnn2c1COCCC2 (single isomer, unassigned) [Example 62]
0.61 µM	CO[C@H]1CCOc2c([S@@](=O)(=NC(=O)Nc3c4c(cc5c3CCC5)CCC4)NC#N)cnn2C1 (single isomer, unassigned) [Example 112]
0.49 µM	COC1CCOc2c(S(N)(=O)=NC(=O)Nc3c4c(cc5c3CCC5)CCC4)cnn2C1 (single isomer, unassigned) [Example 91]
0.36 µM	CC1(C)COc2c(S(=O)(=NC(=O)Nc3c4c(cc5c3CCC5)CCC4)NC#N)cnn2C1 (racemic) [Example 94, N-cyano-N′-((1,2,3,5,6,7-hexahydro-s-indacen-4-yl)carbamoyl)-6,6-dimethyl-6,7-dihydro-5H-pyrazolo[5,1-b][1,3]oxazine-3-sulfonimidamide]
0.36 µM	COC1CCn2ncc(S(N)(=O)=NC(=O)Nc3c4c(cc5c3CCC5)CCC4)c2OC1 (single isomer, unassigned) [Example 93]
0.34 µM	CC1CCOc2c(S(N)(=O)=NC(=O)Nc3c4c(cc5c3CCC5)CCC4)cnn2C1 (single isomer, unassigned) [Example 65]
0.32 µM	COC1CCOc2c(S(N)(=O)=NC(=O)Nc3c4c(cc5c3CCC5)CCC4)cnn2C1 (single isomer, unassigned) [Example 90]
0.27 µM	CNC1COc2c(S(N)(=O)=NC(=O)Nc3c4c(c(F)c5c3CCC5)CCC4)cnn2C1 (single isomer, unassigned) [Example 82]
0.15 µM	CNC1CCOc2c(S(N)(=O)=NC(=O)Nc3c4c(cc5c3CCC5)CCC4)cnn2C1 (single isomer, unassigned) [Example 106]
0.12 µM	CNC1CCOc2c(S(N)(=O)=NC(=O)Nc3c4c(cc5c3CCC5)CCC4)cnn2C1 (single isomer, unassigned) [Example 110]
0.1 µM	CN(C)[C@@H]1COc2c([S@](=O)(=NC(=O)Nc3c4c(c(F)c5c3CCC5)CCC4)NC#N)cnn2C1 (single isomer, unassigned) [Example 111]
0.093 µM	CC1CCn2ncc(S(N)(=O)=NC(=O)Nc3c4c(cc5c3CCC5)CCC4)c2OC1 (single isomer, unassigned) [Example 78]
0.03 µM	N#CNS(=O)(=NC(=O)Nc1c2c(cc3c1CCC3)CCC2)c1cnn2c1OCCC2 (single isomer, unassigned) [Example 69]
0.02 µM	CC1(C)COc2c(S(N)(=O)=NC(=O)Nc3c4c(cc5c3CCC5)CCC4)cnn2C1 (single isomer, unassigned) [Example 81]
0.008 µM	CNC1COc2c(S(N)(=O)=NC(=O)Nc3c4c(c(F)c5c3CCC5)CCC4)cnn2C1 (single isomer, unassigned) [Example 83]
